In brackets after ≈: the same amount, converted by molar mass. Where two headings read alike, the source gives them in different places.
What was measured:
[1] = system: C. albicans; experiment: Antifungal Activity Assay (broth microtiter MIC), C. albicans; format: cell-based, Candida albicans; details: Candida albicans, ATCC90028, 48 h
Summary of the method: (§1)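 Colonies from 24 h Sabouraud dextrose agar plates (35° C) are suspended in RPMI 1640+MOPS and diluted to give 2.5×10^3 CFU/mL in the wells. Plates are set up per CLSI M27-A3. Visual MIC is recorded at 48 h.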

[2] = system: C. krusei; experiment: Antifungal Activity Assay (broth microtiter MIC), C. krusei; format: cell-based, Candida krusei; details: Pichia kudriavzevii, ATCC6258, 48 h
Summary of the method: as §1

[3] = system: C. parapsilosis; experiment: Antifungal Activity Assay (broth microtiter MIC), C. parapsilosis; format: cell-based, Candida parapsilosis; details: Lodderomyces parapsilosis, ATCC22019, 48 h
Summary of the method: as §1

[4] = system: Botrtyis cinerea (Bc); experiment: Growth inhibition assay of fungal pathogens, Bc; format: cell-based; details: 48 h
Summary of the method: (§2)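 Read-out: OD600 plus visual rating at 24 and 48 h, blank (media + 2% DMSO) subtracted. Percent inhibition was derived at 48 h versus the 2% DMSO control. Spores were grown in 17% V8 broth with compound at 50/10/2 or 2/0.4/0.08 ppm final.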

[5] = system: Collectotrichum graminicola (Cg); experiment: Growth inhibition assay of fungal pathogens, Cg; format: cell-based; details: 48 h
Summary of the method: as §2

[6] = system: Diplodia maydis (Dm); experiment: Growth inhibition assay of fungal pathogens, Dm; format: cell-based; details: Stenocarpella maydis, 48 h
Summary of the method: as §2

[7] = system: Fusarium moniliforme (Fm); experiment: Growth inhibition assay of fungal pathogens, Fm; format: cell-based; details: for IC90: Fusarium verticillioides, 48 h, read-out: Concentration at 90% Inhibition Fm
Summary of the method: as §2

[8] = system: Fusarium virguliforme (Fv); experiment: Growth inhibition assay of fungal pathogens, Fv; format: cell-based; details: 48 h
Summary of the method: as §2

[9] = system: Rhizoctonia solani (Rs); experiment: Growth inhibition assay of fungal pathogens, Rs; format: cell-based; details: 48 h
[10] = system: Septoria tritici (St); experiment: Growth inhibition assay of fungal pathogens, St; format: cell-based; details: Zymoseptoria tritici, 48 h
Summary of the method: as §2

[11] = read-out: MIC, C. albicans ATCC 90028, Table 3a, 3 replicates, MIC recorded at 48 h
[12] = read-out: MIC, C. albicans ATCC 90028, Table 3b (additional results), 3 replicates, MIC recorded at 48 h
[13] = read-out: MIC, C. krusei ATCC 6258, Table 3a, 3 replicates, MIC recorded at 48 h
[14] = read-out: MIC, C. krusei ATCC 6258, Table 3b (additional results), 3 replicates, MIC recorded at 48 h
[15] = read-out: MIC, C. parapsilosis ATCC 22019, Table 3a, 3 replicates, MIC recorded at 48 h
[16] = read-out: MIC, C. parapsilosis ATCC 22019, Table 3b (additional results), 3 replicates, MIC recorded at 48 h
[17] = read-out: Concentration at 90% Inhibition Bc, Botrtyis cinerea, growth inhibition at 48 hours vs 2% DMSO control
[18] = read-out: Concentration at 90% Inhibition Bc, Botrtyis cinerea, growth inhibition vs 2% DMSO control at 48 hours
[19] = read-out: Concentration at 90% Inhibition Cg, Collectotrichum graminicola, growth inhibition at 48 hours vs 2% DMSO control
[20] = read-out: Concentration at 90% Inhibition Cg, Collectotrichum graminicola, growth inhibition vs 2% DMSO control at 48 hours
[21] = read-out: Concentration at 90% Inhibition Dm, Diplodia maydis, growth inhibition at 48 hours vs 2% DMSO control
[22] = read-out: Concentration at 90% Inhibition Dm, Diplodia maydis, growth inhibition vs 2% DMSO control at 48 hours
[23] = Fusarium moniliforme, growth inhibition at 48 hours vs 2% DMSO control
[24] = read-out: Concentration at 90% Inhibition Fv, Fusarium virguliforme, growth inhibition at 48 hours vs 2% DMSO control
[25] = read-out: Concentration at 90% Inhibition Fv, Fusarium virguliforme, growth inhibition vs 2% DMSO control at 48 hours
[26] = read-out: Concentration at 90% Inhibition Rs, Rhizoctonia solani, mycelial plugs, growth inhibition at 48 hours vs 2% DMSO control
[27] = read-out: Concentration at 90% Inhibition Rs, Rhizoctonia solani, mycelial plugs, growth inhibition vs 2% DMSO control at 48 hours
[28] = read-out: Concentration at 90% Inhibition St, Septoria tritici, growth inhibition at 48 hours vs 2% DMSO control
[29] = read-out: Concentration at 90% Inhibition St, Septoria tritici, growth inhibition vs 2% DMSO control at 48 hours
[30] = Table 3a, ATCC 90028, 3 replicates, MIC recorded at 48 h, read-out: MIC, C. albicans ATCC 90028
[31] = Table 3b (additional results), ATCC 90028, 3 replicates, MIC recorded at 48 h, read-out: MIC, C. albicans ATCC 90028
[32] = Table 3a, ATCC 6258, 3 replicates, MIC recorded at 48 h, read-out: MIC, C. krusei ATCC 6258
[33] = Table 3b (additional results), ATCC 6258, 3 replicates, MIC recorded at 48 h, read-out: MIC, C. krusei ATCC 6258
[34] = Table 3a, ATCC 22019, 3 replicates, MIC recorded at 48 h, read-out: MIC, C. parapsilosis ATCC 22019
[35] = Table 3b (additional results), ATCC 22019, 3 replicates, MIC recorded at 48 h, read-out: MIC, C. parapsilosis ATCC 22019
[36] = Botrtyis cinerea, growth inhibition at 48 hours vs 2% DMSO control, read-out: Concentration at 90% Inhibition Bc
[37] = Botrtyis cinerea, growth inhibition vs 2% DMSO control at 48 hours, read-out: Concentration at 90% Inhibition Bc
[38] = Collectotrichum graminicola, growth inhibition at 48 hours vs 2% DMSO control, read-out: Concentration at 90% Inhibition Cg
[39] = Collectotrichum graminicola, growth inhibition vs 2% DMSO control at 48 hours, read-out: Concentration at 90% Inhibition Cg
[40] = Diplodia maydis, growth inhibition at 48 hours vs 2% DMSO control, read-out: Concentration at 90% Inhibition Dm
[41] = Diplodia maydis, growth inhibition vs 2% DMSO control at 48 hours, read-out: Concentration at 90% Inhibition Dm
[42] = Fusarium moniliforme, growth inhibition vs 2% DMSO control at 48 hours
[43] = growth inhibition at 48 hours vs 2% DMSO control, read-out: Concentration at 90% Inhibition Fv
[44] = growth inhibition vs 2% DMSO control at 48 hours, read-out: Concentration at 90% Inhibition Fv
[45] = mycelial plugs, growth inhibition at 48 hours vs 2% DMSO control, read-out: Concentration at 90% Inhibition Rs
[46] = mycelial plugs, growth inhibition vs 2% DMSO control at 48 hours, read-out: Concentration at 90% Inhibition Rs
[47] = Septoria tritici, growth inhibition at 48 hours vs 2% DMSO control, read-out: Concentration at 90% Inhibition St
[48] = Septoria tritici, growth inhibition vs 2% DMSO control at 48 hours, read-out: Concentration at 90% Inhibition St

Structure (SMILES)	MIC [1, 11] [µg/mL]	MIC [1, 12] [µg/mL]	MIC [2, 13] [µg/mL]	MIC [2, 14] [µg/mL]	MIC [3, 15] [µg/mL]	MIC [3, 16] [µg/mL]	IC90 [4, 17] [µg/mL]	IC90 [4, 18] [µg/mL]	IC90 [5, 19] [µg/mL]	IC90 [5, 20] [µg/mL]	IC90 [6, 21] [µg/mL]	IC90 [6, 22] [µg/mL]	Concentration at 90% Inhibition Fm [7, 23]	IC90 [7] [µg/mL]	IC90 [8, 24] [µg/mL]	IC90 [8, 25] [µg/mL]	IC90 [9, 26] [µg/mL]	IC90 [9, 27] [µg/mL]	IC90 [10, 28] [µg/mL]	IC90 [10, 29] [µg/mL]	also measured
COc1ccccc1[C@H](Cn1c(=O)n(C(C)(C)C(=O)N2CC(O)C2)c(=O)c2c(C)c(-n3nccn3)sc21)OC1CCOCC1 [Compound I-19, (R)-3-(1-(3-hydroxyazetidin-1-yl)-2-methyl-1-oxopropan-2-yl)-1-(2-(2-methoxyphenyl)-2-((tetrahydro-2H-pyran-4-yl)oxy)ethyl)-5-methyl-6-(2H-1,2,3-triazol-2-yl)thieno[2,3-d]pyrimidine-2,4(1H,3H)-dione]	2.1 to 4 (≈ 3.36 to 6.4 µM)	1.01 to 2 (≈ 1.62 to 3.2 µM)	2.1 to 4 (≈ 3.36 to 6.4 µM)	2.01 to 4 (≈ 3.22 to 6.4 µM)	2.1 to 4 (≈ 3.36 to 6.4 µM)	1.01 to 2 (≈ 1.62 to 3.2 µM)	10 (≈ 16 µM)	> 50	> 50	> 50	> 50	> 50	B (compound concentration of 2.0 ppm at 90% inhibition of fungal pathogens)	2 (≈ 3.2 µM)	10 (≈ 16 µM)	> 50	10 (≈ 16 µM)	> 50	> 50	> 50	–
COc1ccc(F)cc1[C@H](Cn1c(=O)n(C(C)(C)C(=O)N2CCCCC2)c(=O)c2c(C)c(-n3nccn3)sc21)OC1CCOCC1 [Compound I-24, (R)-1-(2-(5-fluoro-2-methoxyphenyl)-2-((tetrahydro-2H-pyran-4-yl)oxy)ethyl)-5-methyl-3-(2-methyl-1-oxo-1-(piperidin-1-yl)propan-2-yl)-6-(2H-1,2,3-triazol-2-yl)thieno[2,3-d]pyrimidine-2,4(1H,3H)-dione]	0.25 to 1 (≈ 0.382 to 1.53 µM)	0.25 to 1 (≈ 0.382 to 1.53 µM)	0.25 to 1 (≈ 0.382 to 1.53 µM)	0.25 to 1 (≈ 0.382 to 1.53 µM)	0.25 to 1 (≈ 0.382 to 1.53 µM)	0.25 to 1 (≈ 0.382 to 1.53 µM)	0.4 (≈ 0.611 µM)	0.4 (≈ 0.611 µM)	0.08 (≈ 0.122 µM)	0.08 (≈ 0.122 µM)	0.08 (≈ 0.122 µM)	0.08 (≈ 0.122 µM)	AA (compound concentration of 0.08 ppm at 90% inhibition of fungal pathogens)	0.08 (≈ 0.122 µM)	0.4 (≈ 0.611 µM)	0.4 (≈ 0.611 µM)	0.08 (≈ 0.122 µM)	0.08 (≈ 0.122 µM)	2 (≈ 3.05 µM)	10 (≈ 15.3 µM)	–
COc1ccc(F)cc1[C@H](Cn1c(=O)n(C(C)(C)C(=O)N2CC(O)C2)c(=O)c2c(C)c(-n3nccn3)sc21)OC1CCOCC1 [Compound I-26, (R)-1-(2-(5-fluoro-2-methoxyphenyl)-2-((tetrahydro-2H-pyran-4-yl)oxy)ethyl)-3-(1-(3-hydroxyazetidin-1-yl)-2-methyl-1-oxopropan-2-yl)-5-methyl-6-(2H-1,2,3-triazol-2-yl)thieno[2,3-d]pyrimidine-2,4(1H,3H)-dione]	–	–	–	–	–	–	–	–	–	–	–	–	–	–	–	–	–	–	–	–	MIC [1, 30]: 2.1 to 4 µg/mL (≈ 3.27 to 6.22 µM); MIC [1, 31]: 1.01 to 2 µg/mL (≈ 1.57 to 3.11 µM); MIC [2, 32]: 2.1 to 4 µg/mL (≈ 3.27 to 6.22 µM); MIC [2, 33]: 1.01 to 2 µg/mL (≈ 1.57 to 3.11 µM); MIC [3, 34]: 2.1 to 4 µg/mL (≈ 3.27 to 6.22 µM); MIC [3, 35]: 1.01 to 2 µg/mL (≈ 1.57 to 3.11 µM); IC90 [4, 36]: 2 µg/mL (≈ 3.11 µM); IC90 [4, 37]: 2 µg/mL (≈ 3.11 µM); IC90 [5, 38]: 10 µg/mL (≈ 15.6 µM); IC90 [5, 39]: > 50 µg/mL; IC90 [6, 40]: 10 µg/mL (≈ 15.6 µM); IC90 [6, 41]: > 50 µg/mL; IC90 [7, 23]: 0.4 µg/mL (≈ 0.622 µM); IC90 [7, 42]: 0.4 µg/mL (≈ 0.622 µM); IC90 [8, 43]: 2 µg/mL (≈ 3.11 µM); IC90 [8, 44]: 2 µg/mL (≈ 3.11 µM); IC90 [9, 45]: 10 µg/mL (≈ 15.6 µM); IC90 [9, 46]: > 50 µg/mL; IC90 [10, 47]: > 50 µg/mL; IC90 [10, 48]: > 50 µg/mL
COc1ccc(F)cc1[C@H](Cn1c(=O)n(C(C)(C)C(N)=O)c(=O)c2c(C)c(-n3nccn3)sc21)OC1CCC(=O)CC1 [Compound I-31, (R)-2-(1-(2-(5-fluoro-2-methoxyphenyl)-2-((4-oxocyclo-hexyl)oxy)ethyl)-5-methyl-2,4-dioxo-6-(2H-1,2,3-triazol-2-yl)-1,4-dihydrothieno[2,3-d]pyrimidin-3(2H)-yl)-2-methylpropanamide]	–	–	–	–	–	–	–	–	–	–	–	–	–	–	–	–	–	–	–	–	MIC [1, 30]: 0.25 to 1 µg/mL (≈ 0.418 to 1.67 µM); MIC [1, 31]: 0.25 to 1 µg/mL (≈ 0.418 to 1.67 µM); MIC [2, 32]: 0.25 to 1 µg/mL (≈ 0.418 to 1.67 µM); MIC [2, 33]: 0.25 to 1 µg/mL (≈ 0.418 to 1.67 µM); MIC [3, 34]: 1.1 to 2 µg/mL (≈ 1.84 to 3.34 µM); MIC [3, 35]: 2.01 to 4 µg/mL (≈ 3.36 to 6.68 µM); IC90 [4, 36]: 0.4 µg/mL (≈ 0.668 µM); IC90 [4, 37]: 0.4 µg/mL (≈ 0.668 µM); IC90 [5, 38]: 10 µg/mL (≈ 16.7 µM); IC90 [5, 39]: > 50 µg/mL; IC90 [6, 40]: 2 µg/mL (≈ 3.34 µM); IC90 [6, 41]: 10 µg/mL (≈ 16.7 µM); IC90 [7, 23]: 0.4 µg/mL (≈ 0.668 µM); IC90 [7, 42]: 0.4 µg/mL (≈ 0.668 µM); IC90 [8, 43]: 10 µg/mL (≈ 16.7 µM); IC90 [8, 44]: > 50 µg/mL; IC90 [9, 45]: 2 µg/mL (≈ 3.34 µM); IC90 [9, 46]: 2 µg/mL (≈ 3.34 µM); IC90 [10, 47]: > 50 µg/mL; IC90 [10, 48]: > 50 µg/mL

Source: patent US10800791B2, “Triazole ACC inhibitors and uses thereof” (Gilead Apollo, LLC, priority 2015, dated 2020)
